ChEMBL document CHEMBL1201862, “PubChem BioAssay data set” (2004)
Activity calls are given as the source filed them.

Assays:
[1] = target: Photoreceptor-specific nuclear receptor (Homo sapiens, UniProt Q9Y5X4); format: functional, cell-based;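 also: CHO-S cells with Gal4-NCOR and VP16-NR2E3 two-hybrid luciferase reporter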
[2] = target: T1, Corticotropin-releasing factor receptor 2/Corticotropin-releasing factor-binding protein (Homo sapiens, UniProt P24387+Q13324); assay: Dose Response confirmation of uHTS hits for small molecule antagonists of the CRF-binding protein and CRF-R2 receptor complex.; format: functional; details: read-out: IC50_Mean
T1 sequence (Q13324 whole entry): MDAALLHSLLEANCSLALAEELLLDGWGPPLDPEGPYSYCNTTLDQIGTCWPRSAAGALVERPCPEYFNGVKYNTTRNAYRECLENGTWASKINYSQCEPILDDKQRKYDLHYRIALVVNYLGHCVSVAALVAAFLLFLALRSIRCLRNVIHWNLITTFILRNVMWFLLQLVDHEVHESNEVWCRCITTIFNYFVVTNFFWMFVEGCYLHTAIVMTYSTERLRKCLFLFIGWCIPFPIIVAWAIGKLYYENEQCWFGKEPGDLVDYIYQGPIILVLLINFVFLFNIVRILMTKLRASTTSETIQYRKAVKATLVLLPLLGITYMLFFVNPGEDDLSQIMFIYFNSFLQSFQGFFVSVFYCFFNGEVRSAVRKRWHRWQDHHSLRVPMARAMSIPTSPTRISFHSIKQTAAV
T1 sequence (P24387 whole entry): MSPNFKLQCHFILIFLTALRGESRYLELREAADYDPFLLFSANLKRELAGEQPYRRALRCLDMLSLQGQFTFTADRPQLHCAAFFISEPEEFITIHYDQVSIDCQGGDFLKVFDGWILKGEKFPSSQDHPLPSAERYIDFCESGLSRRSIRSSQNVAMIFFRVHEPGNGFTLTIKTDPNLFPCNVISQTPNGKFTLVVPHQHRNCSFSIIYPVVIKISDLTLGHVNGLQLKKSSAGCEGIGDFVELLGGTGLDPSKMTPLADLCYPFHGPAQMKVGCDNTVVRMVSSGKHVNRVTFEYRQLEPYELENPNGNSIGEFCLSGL

[3] = target: T1, Corticotropin-releasing factor receptor 2/Corticotropin-releasing factor-binding protein; assay: activators of CRF receptor 2 with binding protein – uHTS hits, confirmation (AID 602473); format: functional; details: read-out: EC50_Mean
[4] = CRF-BP/CRF-R2 complex antagonists, dose response, cell-based, uHTS hits, 384-well (AID 651639); format: functional, Homo sapiens; details: read-out: IC50_Mean
[5] = target: Nuclear receptor subfamily 5 group A member 2 (Homo sapiens, UniProt O00482); format: functional, cell-based;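 also: HEK293T cells transfected with LRH-1 and a StAR promoter luciferase reporter; potency for inhibitors that lower LRH-1 driven reporter light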
Chain of Nuclear receptor subfamily 5 group A member 2 (O00482 whole entry): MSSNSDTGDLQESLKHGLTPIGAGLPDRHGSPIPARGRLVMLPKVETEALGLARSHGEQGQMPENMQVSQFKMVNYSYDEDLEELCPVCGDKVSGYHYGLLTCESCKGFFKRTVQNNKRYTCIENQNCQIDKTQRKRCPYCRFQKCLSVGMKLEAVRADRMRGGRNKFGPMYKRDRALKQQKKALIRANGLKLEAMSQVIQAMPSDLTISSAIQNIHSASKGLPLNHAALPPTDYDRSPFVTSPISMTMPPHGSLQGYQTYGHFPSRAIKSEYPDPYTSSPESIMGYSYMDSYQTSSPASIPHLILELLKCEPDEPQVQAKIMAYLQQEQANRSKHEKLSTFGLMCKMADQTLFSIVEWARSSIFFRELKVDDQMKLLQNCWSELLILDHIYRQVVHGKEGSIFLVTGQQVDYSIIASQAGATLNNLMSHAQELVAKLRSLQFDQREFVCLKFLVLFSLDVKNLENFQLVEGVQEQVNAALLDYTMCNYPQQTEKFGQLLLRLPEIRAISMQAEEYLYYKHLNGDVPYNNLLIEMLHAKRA

[6] = target: Steroidogenic factor 1 (Homo sapiens, UniProt Q13285); assay: Counterscreen for inverse agonists of the liver receptor homolog-1 (LRH-1; NR5A2): Luminescence-based cell-based high throughput dose response assay to identify inverse agonists of the Steroidogenic Factor 1 Nuclear Receptor (SF1; NR5A1).; format: functional
Chain of Steroidogenic factor 1 (Q13285 whole entry): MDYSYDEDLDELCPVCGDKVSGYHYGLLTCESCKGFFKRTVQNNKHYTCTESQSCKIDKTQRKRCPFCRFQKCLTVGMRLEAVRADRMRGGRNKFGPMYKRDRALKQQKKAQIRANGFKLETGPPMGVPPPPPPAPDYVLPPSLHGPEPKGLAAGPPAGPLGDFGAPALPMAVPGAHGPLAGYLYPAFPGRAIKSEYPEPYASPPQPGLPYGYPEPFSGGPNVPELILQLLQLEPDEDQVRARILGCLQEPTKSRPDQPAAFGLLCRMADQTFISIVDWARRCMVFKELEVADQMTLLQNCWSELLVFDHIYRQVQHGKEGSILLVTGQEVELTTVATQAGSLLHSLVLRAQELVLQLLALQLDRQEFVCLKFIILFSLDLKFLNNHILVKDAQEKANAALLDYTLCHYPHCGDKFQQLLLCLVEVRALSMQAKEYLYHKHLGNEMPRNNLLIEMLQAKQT

[7] = StAR promoter reporter inhibition counter-screen, dose response, counter-screen for LRH-1 inverse agonist project, cell-based, luminescence, luciferase reporter (AID 651969); format: functional
[8] = cells; format: functional, cell-based
[9] = cells; format: functional, cell-based; remark: listed apart in the source

Chain of Photoreceptor-specific nuclear receptor (Q9Y5X4 whole entry, the tested form may be a part): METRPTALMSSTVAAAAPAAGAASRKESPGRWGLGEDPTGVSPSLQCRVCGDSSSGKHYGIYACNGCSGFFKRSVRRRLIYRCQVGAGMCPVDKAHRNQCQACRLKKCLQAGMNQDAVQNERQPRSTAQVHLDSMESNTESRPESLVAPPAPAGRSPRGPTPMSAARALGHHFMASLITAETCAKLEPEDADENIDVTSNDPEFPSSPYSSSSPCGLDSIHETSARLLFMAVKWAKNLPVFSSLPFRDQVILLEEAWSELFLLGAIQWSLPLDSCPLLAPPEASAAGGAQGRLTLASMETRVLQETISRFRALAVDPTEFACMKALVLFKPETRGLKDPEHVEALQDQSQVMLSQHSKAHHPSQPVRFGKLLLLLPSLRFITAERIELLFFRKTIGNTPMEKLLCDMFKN

| SMILES | IC50 [2] | EC50 [3] | IC50 [4] | other results |
| --- | --- | --- | --- | --- |
| O=C(Nc1cccc(NC(=O)c2c(F)cccc2F)n1)c1c(F)cccc1F | – | – | – | IC50 [1]: 2.98 µM (active) |
| O=C(COC(=O)c1ccc(Br)cc1)Nc1ccccc1Br | – | – | – | IC50 [5]: 35.9 µM (inactive); IC50 [6]: 35.9 µM (inactive); IC50 [7]: 35.9 µM (inactive) |
| O=C(N[C@H](C(=O)N1CCC[C@H]1C(=O)NCCc1ccccc1Cl)C1CCCCC1)c1cccs1 | – | – | – | IC50 [8]: > 29.9 µM (inactive); EC50 [9]: > 29.9 µM (inactive) |

Now from value to compound, other results behind:

| IC50 [2] | EC50 [3] | IC50 [4] | SMILES | other results |
| --- | --- | --- | --- | --- |
| 31.2 µM (active) | > 53 µM (inactive) | 3.74 µM (active) | Cc1cc(C)cc(Nc2c(F)c(F)c(F)c(F)c2C(=O)O)c1 | – |
| < 0.368 µM (active) | > 53 µM (inactive) | > 20 µM (inactive) | Cc1ccc(S(=O)(=O)N2c3ccccc3OCC2c2ccccc2)cc1 (configuration not stated) | – |
